Assay results published in patent US9944603B2, “Compounds and methods for the treatment of cystic fibrosis” (Flatley Discovery Lab, LLC, priority 2013, dated 2018).
Values belong to the molecule of their own block, whether it stands above or below them.

Target: T1, human F508del CFTR (Homo sapiens, UniProt P13569, DEL508-508)
T1 construct: expressed in transfected cells
Test: CFTR-YFP Assay, CFTR Corrector Protocol (YFP flux assay)
Type: cell-based
Conditions: for Emax: normalized to the positive control, read-out: EMAX (% Efficacy, EMAX normalized to the positive control)

T1 sequence (P13569 with tags, fused parts or gaps DEL508-508): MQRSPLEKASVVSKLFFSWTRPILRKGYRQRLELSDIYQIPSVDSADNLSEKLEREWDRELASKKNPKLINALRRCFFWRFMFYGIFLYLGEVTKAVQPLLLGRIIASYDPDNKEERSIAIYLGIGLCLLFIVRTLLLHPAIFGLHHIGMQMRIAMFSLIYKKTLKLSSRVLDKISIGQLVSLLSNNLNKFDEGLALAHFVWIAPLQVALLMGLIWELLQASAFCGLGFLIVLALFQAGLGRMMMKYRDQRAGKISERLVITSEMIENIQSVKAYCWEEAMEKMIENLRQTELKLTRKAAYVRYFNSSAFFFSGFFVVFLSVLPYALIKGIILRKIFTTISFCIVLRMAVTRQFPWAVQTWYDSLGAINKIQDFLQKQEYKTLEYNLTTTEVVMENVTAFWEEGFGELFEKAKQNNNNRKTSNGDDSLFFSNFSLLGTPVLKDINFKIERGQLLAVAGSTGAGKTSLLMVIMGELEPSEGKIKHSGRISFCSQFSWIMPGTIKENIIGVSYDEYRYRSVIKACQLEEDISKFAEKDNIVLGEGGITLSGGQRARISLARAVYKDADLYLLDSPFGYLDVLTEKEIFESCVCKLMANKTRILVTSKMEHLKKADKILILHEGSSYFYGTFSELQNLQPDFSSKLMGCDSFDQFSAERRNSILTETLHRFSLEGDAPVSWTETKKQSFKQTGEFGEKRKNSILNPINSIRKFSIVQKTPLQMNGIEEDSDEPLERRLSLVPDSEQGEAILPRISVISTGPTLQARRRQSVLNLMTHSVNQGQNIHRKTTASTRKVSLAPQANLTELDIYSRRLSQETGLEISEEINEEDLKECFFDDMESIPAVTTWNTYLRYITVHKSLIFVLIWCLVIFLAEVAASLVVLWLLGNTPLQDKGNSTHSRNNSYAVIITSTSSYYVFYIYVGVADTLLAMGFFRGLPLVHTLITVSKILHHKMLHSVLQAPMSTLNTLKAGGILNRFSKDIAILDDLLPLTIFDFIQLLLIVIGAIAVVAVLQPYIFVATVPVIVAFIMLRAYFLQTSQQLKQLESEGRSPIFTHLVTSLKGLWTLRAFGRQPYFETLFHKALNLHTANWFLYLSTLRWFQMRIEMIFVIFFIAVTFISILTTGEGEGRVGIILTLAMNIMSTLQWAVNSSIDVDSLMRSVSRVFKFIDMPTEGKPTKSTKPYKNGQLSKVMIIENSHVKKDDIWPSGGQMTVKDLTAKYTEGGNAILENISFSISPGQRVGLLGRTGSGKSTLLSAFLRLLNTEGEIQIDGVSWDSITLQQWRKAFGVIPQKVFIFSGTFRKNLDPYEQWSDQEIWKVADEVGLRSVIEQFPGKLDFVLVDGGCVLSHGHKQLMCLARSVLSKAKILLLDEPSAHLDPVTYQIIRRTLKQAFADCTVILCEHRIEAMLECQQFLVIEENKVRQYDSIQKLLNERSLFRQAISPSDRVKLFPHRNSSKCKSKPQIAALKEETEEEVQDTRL

SMILES: O=S(=O)(c1ccc2c(c1)OC(F)(F)O2)N1CCC(n2c(-c3ccncc3Cl)nc3cccnc32)CC1 [Example 38]
EC50: < 10 µM
Emax: > 80%

SMILES: O=S(=O)(c1ccc2c(c1)OC(F)(F)O2)N1CCC(n2c(-c3ccccc3Cl)nc3cccnc32)CC1 [Example 39]
EC50: < 10 µM
Emax: 30 to 80%

SMILES: CCc1ccc(S(=O)(=O)N2CCC(n3c(-c4ccncc4Cl)nc4cccnc43)CC2)cc1 [Example 41]
EC50: < 10 µM
Emax: 30 to 80%

SMILES: [2H]C1([2H])Oc2ccc(S(=O)(=O)N3CCC(n4c(-c5ccncc5Cl)nc5cccnc54)CC3)cc2O1 [Example 44]
EC50: < 10 µM
Emax: 30 to 80%

SMILES: CCc1ccc(S(=O)(=O)N2CCC(n3c(-c4cccnc4Cl)nc4cccnc43)CC2)cc1 [Example 45]
EC50: < 10 µM
Emax: 30 to 80%

SMILES: CCc1ccc(S(=O)(=O)N2CCC(n3c(-c4ccc(F)cc4F)nc4cccnc43)CC2)cc1 [Example 47]
EC50: < 10 µM
Emax: 30 to 80%

SMILES: COc1ccc(S(=O)(=O)N2CCC(n3c(-c4ccccc4C#N)nc4cccnc43)CC2)cc1Cl [Example 50]
EC50: < 10 µM
Emax: 30 to 80%

SMILES: O=S(=O)(c1ccc2c(c1)OC(F)(F)O2)N1CCC(n2c(-c3ccncc3F)nc3cccnc32)CC1 [Example 52]
EC50: < 10 µM
Emax: 30 to 80%

SMILES: COc1ccc(S(=O)(=O)N2CCC(n3c(-c4ccccc4OC)nc4cccnc43)CC2)cc1Cl [Example 55]
EC50: < 10 µM
Emax: 30 to 80%

SMILES: COc1ccc(S(=O)(=O)N2CCC(n3c(-c4ccc5c(c4)OCO5)nc4cccnc43)CC2)cc1Cl [Example 57]
EC50: < 10 µM
Emax: 30 to 80%

SMILES: Cc1ccc(S(=O)(=O)N2CCC(n3c(-c4ccccc4)nc4ccc(C)nc43)CC2)cc1 [Example 61]
EC50: < 10 µM
Emax: 30 to 80%

SMILES: Cc1ccc2nc(-c3ccccc3)n(C3CCN(S(=O)(=O)c4ccc5c(c4)OCO5)CC3)c2n1 [Example 62]
EC50: < 10 µM
Emax: 30 to 80%

SMILES: Cc1ccc2nc(-c3ccccc3)n(C3CCN(S(=O)(=O)c4ccc(C)c(Cl)c4)CC3)c2n1 [Example 63]
EC50: < 10 µM
Emax: 30 to 80%

SMILES: COc1ccc(S(=O)(=O)N2CCC(n3c(-c4ccccc4)nc4ccc(C)nc43)CC2)cc1F [Example 64]
EC50: < 10 µM
Emax: 30 to 80%

SMILES: CC(=O)Nc1ccc(S(=O)(=O)N2CCC(n3c(-c4ccccc4)nc4cccnc43)CC2)cc1Cl [Example 70]
EC50: < 10 µM
Emax: 10 to 30%

SMILES: N#Cc1ccc(S(=O)(=O)N2CCC(n3c(-c4ccccc4)nc4cccnc43)CC2)cc1Cl [Example 71]
EC50: < 10 µM
Emax: 10 to 30%

SMILES: O=S(=O)(c1c[nH]cn1)N1CCC(n2c(-c3ccccc3)nc3cccnc32)CC1 [Example 72]
EC50: < 10 µM
Emax: 10 to 30%

SMILES: COc1ccc(S(=O)(=O)N2CCC(n3c(-c4ccc(F)cc4)nc4cccnc43)CC2)cc1Cl [Example 77]
EC50: < 10 µM
Emax: 30 to 80%

SMILES: COc1ccc(S(=O)(=O)N2CCC(n3c(-c4ccc(C(F)(F)F)cc4)nc4cccnc43)CC2)cc1Cl [Example 78]
EC50: < 10 µM
Emax: 10 to 30%

SMILES: COC(=O)c1ccccc1-c1nc2cccnc2n1C1CCN(S(=O)(=O)c2ccc(OC)c(Cl)c2)CC1 [Example 79]
EC50: < 10 µM
Emax: 30 to 80%

SMILES: COc1ccc(S(=O)(=O)N2CCC(n3c(-c4ccccc4OC(C)=O)nc4cccnc43)CC2)cc1Cl [Example 80]
EC50: < 10 µM
Emax: 30 to 80%

SMILES: COc1ccc(S(=O)(=O)N2CCC(n3c(-c4ccccc4)nc4ccccc43)CC2)cc1Cl [Example 81]
EC50: < 10 µM
Emax: 30 to 80%

SMILES: O=S(=O)(c1ccc2c(c1)OC(F)(F)O2)N1CCC(n2c(-c3ccccc3)nc3ccccc32)CC1 [Example 82]
EC50: < 10 µM
Emax: 30 to 80%

SMILES: Cc1ccc2nc(-c3ccc(F)cc3)n(C3CCN(S(=O)(=O)c4ccc5c(c4)OC(F)(F)O5)CC3)c2n1 [Example 84]
EC50: < 10 µM
Emax: 30 to 80%

SMILES: COc1ccc(S(=O)(=O)N2CCC(n3c(-c4cccnc4Cl)nc4cccnc43)CC2)cc1Cl [Example 88]
EC50: > 20 µM
Emax: 30 to 80%

SMILES: COc1ccc(S(=O)(=O)N2CCC(n3c(-c4ccncc4Cl)nc4cccnc43)CC2)cc1Cl [Example 89]
EC50: 10 to 20 µM
Emax: > 80%

SMILES: COc1ccc(S(=O)(=O)N2CCC(n3c(-c4ncccc4Cl)nc4cccnc43)CC2)cc1Cl [Example 90]
EC50: 10 to 20 µM
Emax: 30 to 80%

SMILES: O=S(=O)(c1cccc(OC(F)F)c1)N1CCC(n2c(-c3ccncc3Cl)nc3cccnc32)CC1 [Example 94]
EC50: < 10 µM
Emax: 10 to 30%

SMILES: Cc1ccc(S(=O)(=O)N2CCC(n3c(-c4ccccc4Cl)nc4cccnc43)CC2)cc1C#N [Example 96]
EC50: < 10 µM
Emax: 30 to 80%

SMILES: Cc1ccc2nc(-c3ccccc3)n(C3CCN(S(=O)(=O)c4ccc5c(c4)OC(F)(F)O5)CC3)c2n1 [Example 97]
EC50: < 10 µM
Emax: 30 to 80%

SMILES: COc1ccc(S(=O)(=O)N2CCC(n3c(-c4ccccc4)cc4cccnc43)CC2)cc1Cl [Example 98]
EC50: < 10 µM
Emax: 10 to 30%

SMILES: O=S(=O)(c1ccc2c(c1)OCO2)N1CCC(n2c(-c3ccccc3C(F)(F)F)nc3cccnc32)CC1 [Example 100]
EC50: < 10 µM
Emax: 10 to 30%

The remaining lines, values ahead:

EC50: < 10 µM
Emax: 30 to 80%
SMILES: O=S(=O)(c1ccc2c(c1)OC(F)(F)O2)N1CCC(n2c(-c3ccncc3Cl)nc3ncccc32)CC1 [Example 40]

EC50: < 10 µM
Emax: 30 to 80%
SMILES: CCc1ccc(S(=O)(=O)N2CCC(n3c(-c4ccncc4Cl)nc4ccc(OC)nc43)CC2)cc1 [Example 42]

EC50: < 10 µM
Emax: 30 to 80%
SMILES: Cc1ccc2nc(-c3ccc(F)cc3F)n(C3CCN(S(=O)(=O)c4ccc5c(c4)OC(F)(F)O5)CC3)c2n1 [Example 43]

EC50: < 10 µM
Emax: 30 to 80%
SMILES: O=S(=O)(c1ccc(OC(F)F)cc1)N1CCC(n2c(-c3ccccc3Cl)nc3cccnc32)CC1 [Example 46]

EC50: < 10 µM
Emax: 30 to 80%
SMILES: O=S(=O)(c1ccc2c(c1)OC(F)(F)O2)N1CCC(n2c(-c3ccccc3)nc3cccnc32)CC1 [Example 48]

EC50: < 10 µM
Emax: 30 to 80%
SMILES: COc1ccc(S(=O)(=O)N2CCC(n3c(-c4ccccc4C(F)(F)F)nc4cccnc43)CC2)cc1Cl [Example 49]

EC50: < 10 µM
Emax: 30 to 80%
SMILES: O=S(=O)(c1ccc2c(c1)CCC2)N1CCC(n2c(-c3ccncc3F)nc3cccnc32)CC1 [Example 51]

EC50: < 10 µM
Emax: 30 to 80%
SMILES: COc1ccc(S(=O)(=O)N2CCC(n3c(-c4ccc(F)cc4F)nc4cccnc43)CC2)cc1Cl [Example 53]

EC50: < 10 µM
Emax: 30 to 80%
SMILES: Cc1ccc2nc(-c3ncccc3Cl)n(C3CCN(S(=O)(=O)c4ccc5c(c4)OC(F)(F)O5)CC3)c2n1 [Example 54]

EC50: < 10 µM
Emax: 30 to 80%
SMILES: O=S(=O)(c1ccc(OC(F)F)cc1)N1CCC(n2c(-c3ccncc3Cl)nc3cccnc32)CC1 [Example 56]

EC50: < 10 µM
Emax: 10 to 30%
SMILES: COc1ccc2nc(-c3ccncc3Cl)n(C3CCN(S(=O)(=O)c4ccc(OC)c(Cl)c4)CC3)c2n1 [Example 58]

EC50: < 10 µM
Emax: 30 to 80%
SMILES: Cc1ccc(S(=O)(=O)N2CCC(n3c(-c4ccccc4Cl)nc4cccnc43)CC2)cc1 [Example 59]

EC50: < 10 µM
Emax: 30 to 80%
SMILES: COc1ccc(S(=O)(=O)N2CCC(n3c(-c4ccccc4Cl)nc4cccnc43)CC2)cc1F [Example 60]

EC50: < 10 µM
Emax: 30 to 80%
SMILES: Cc1ccc(S(=O)(=O)N2CCC(n3c(-c4ccccc4Cl)nc4ccc(C)nc43)CC2)cc1 [Example 65]

EC50: > 20 µM
Emax: 10 to 30%
SMILES: O=S(=O)(N1CCOCC1)N1CCC(n2c(-c3ccccc3)nc3cccnc32)CC1 [Example 67]

EC50: < 10 µM
Emax: 10 to 30%
SMILES: COc1cccc(S(=O)(=O)N2CCC(n3c(-c4ccccc4)nc4cccnc43)CC2)c1 [Example 68]

EC50: < 10 µM
Emax: 10 to 30%
SMILES: CC(C)c1ccc(S(=O)(=O)N2CCC(n3c(-c4ccccc4)nc4cccnc43)CC2)cc1 [Example 69]

EC50: < 10 µM
Emax: 30 to 80%
SMILES: COc1ccc(S(=O)(=O)N2CCC(n3c(-c4ccccc4)nc4cccnc43)CC2)cc1C [Example 73]

EC50: < 10 µM
Emax: 30 to 80%
SMILES: COc1ccc(S(=O)(=O)N2CCC(n3c(-c4ccccc4)nc4cccnc43)CC2)cc1C(F)(F)F [Example 74]

EC50: 10 to 20 µM
Emax: 30 to 80%
SMILES: COc1ccc(S(=O)(=O)N2CCC(n3c(-c4ncc[nH]4)nc4cccnc43)CC2)cc1Cl [Example 75]

EC50: < 10 µM
Emax: 30 to 80%
SMILES: COc1ccc(S(=O)(=O)N2CCC(n3c(-c4ccccc4OC(F)(F)F)nc4cccnc43)CC2)cc1Cl [Example 76]

EC50: < 10 µM
Emax: 30 to 80%
SMILES: Cc1ccc2nc(-c3ccccc3F)n(C3CCN(S(=O)(=O)c4ccc5c(c4)OC(F)(F)O5)CC3)c2n1 [Example 83]

EC50: > 20 µM
Emax: 10 to 30%
SMILES: COc1ccc(S(=O)(=O)N2CCC(n3c(-c4ccccc4Cl)nc4ccc(C)nc43)CC2)cc1OC [Example 85]

EC50: < 10 µM
Emax: 30 to 80%
SMILES: Cc1ccc2nc(-c3ccccc3Cl)n(C3CCN(S(=O)(=O)c4ccc5c(c4)OC(F)(F)O5)CC3)c2n1 [Example 86]

EC50: > 20 µM
Emax: 10 to 30%
SMILES: Cc1ccc2nc(-c3ccc4c(c3)OC(F)(F)O4)n(C3CCN(S(=O)(=O)c4ccc5c(c4)OC(F)(F)O5)CC3)c2n1 [Example 87]

EC50: < 10 µM
Emax: 30 to 80%
SMILES: CCc1ccc(S(=O)(=O)N2CCC(n3c(-c4ncccc4Cl)nc4cccnc43)CC2)cc1 [Example 91]

EC50: < 10 µM
Emax: 30 to 80%
SMILES: O=S(=O)(c1ccc2c(c1)OCO2)N1CCC(n2c(-c3cccnc3Cl)nc3cccnc32)CC1 [Example 92]

EC50: < 10 µM
Emax: 30 to 80%
SMILES: O=S(=O)(c1ccc2c(c1)OCO2)N1CCC(n2c(-c3ncccc3Cl)nc3cccnc32)CC1 [Example 93]

EC50: 10 to 20 µM
Emax: 10 to 30%
SMILES: Cc1ccc(S(=O)(=O)N2CCC(n3c(-c4ccncc4Cl)nc4cccnc43)CC2)cc1C#N [Example 95]

EC50: < 10 µM
Emax: 30 to 80%
SMILES: O=S(=O)(c1ccc2c(c1)OC(F)(F)O2)N1CCC(n2c(-c3ccccc3)cc3cccnc32)CC1 [Example 99]

EC50: < 10 µM
Emax: 10 to 30%
SMILES: Cc1ccc2nc(-c3cccnc3Cl)n(C3CCN(S(=O)(=O)c4ccc5c(c4)OCO5)CC3)c2n1 [Example 101]
